Several values for one entry are separate records, joined by “and”; a condition that tells them apart may be missing. Equal values may be shown once. Entries after “also recorded” stand apart in the source; their conditions may differ. Non-standard residues stand in square brackets, D forms with d. Residues, ends and D or L forms follow the SMILES beside them. dPhe(4-Cl) = N[C@H](Cc1ccc(Cl)cc1)C(=O)O; d2Nal = N[C@H](Cc1ccc2ccccc2c1)C(=O)O; dCit = NC(=O)NCCC[C@@H](N)C(=O)O; d3Pal = N[C@H](Cc1cccnc1)C(=O)O
Key:
[1] = Rat muscle experiment: cetrorelix content in the plasma; assay type: in vivo
From the text: (§1) In the further rat muscle experiments shown in Table 9, in addition to the residual content in the muscle, the cetrorelix content in the plasma was additionally determined.

[2] = Rat animal experiment: cetrorelix residual content in the muscle 168 h after injection; assay type: in vivo; settings: for Cetrorelix content in the muscle (168 h), % of the dose: rat
Protocol: (§2) After reconstitution of these lyophilizates, the solutions (2.5 mg/ml of cetrorelix) are investgated in the following tests for aggregate formation and release behaviour: • Polarization microscopy (pol. mic.): days without aggregation. • Filterability in %: • Cetrorelix solutions are prepared according to a standardized procedure and filtered through 0.22 μm or 0.45 μm filters by means of centrifugation. The concentration of cetrorelix in the filtrate is determined by HPLC and indicated as a % value, based on the starting concentration before filtration (filterability in %). • in-vitro release form (RRS, release in Ringer's solution): • % released after 1 h and after 6 h. • The in-vitro release behaviour is determined at 37° C. in a flow procedure using Ringer's solution as medium. The concentration measurement is carried out by HPLC. Cetrorelix samples, corresponding to 10 mg of cetrorelix base, are weighed into the flow cell, mixed with 4 ml of water and stirred for 10 min.
as §1

[3] = Optical appearance of cetrorelix acetate solutions with excipients; assay type: physicochemical
[4] = Polarization microscopy: aggregation of cetrorelix solutions (days without aggregation); assay type: physicochemical
Protocol: By means of polarization microscopy, aggregation investigations were carried out on solutions of various cetrorelix salts without or with addition of excipients.
In the polarization light microscope with crossed polarizers, aggregated peptide solutions show images which are very similar to those of liquid-crystalline structures. In contrast to this, aggregate-free peptide solutions produce no such effects.
as §2, with “([…])” for “(2.5 mg/ml of cetrorelix)”

[5] = In-vitro release in Ringer's solution (RRS), flow procedure at 37° C.; assay type: physicochemical
Protocol: as §2, with “([…])” for “(2.5 mg/ml of cetrorelix)”

[6] = dose 1.5 mg/kg, inj. soln 3 mg/ml
[7] = Cremophor ® EL 5.00%, cetrorelix 2.5 mg/ml
[8] = Cremophor ® EL 10.00%, cetrorelix 2.5 mg/ml
[9] = Cremophor ® EL 20.00%, cetrorelix 2.5 mg/ml
[10] = Cremophor ® EL 20.00%, cetrorelix 5 mg/ml
[11] = Galacturonic acid 2.50%, cetrorelix 2.5 mg/ml, pH 2.6
[12] = Glucaric acid 2.50%, cetrorelix 2.5 mg/ml, pH 2.5
[13] = L-glutamic acid 0.80%, cetrorelix 2.5 mg/ml, pH 3.8
[14] = Solutol ® HS 15 5.00%, cetrorelix 2.5 mg/ml
[15] = Solutol ® HS 15 10.00%, cetrorelix 2.5 mg/ml
[16] = Solutol ® HS 15 20.00%, cetrorelix 2.5 mg/ml
[17] = dose 1.5 mg/kg, inj. soln 3 mg/ml, listed as Acetate
[18] = dose 3.0 mg/kg, inj. soln 15 mg/ml
[19] = cetrorelix 2.5 mg/ml, Kollidon 0%
[20] = cetrorelix 2.5 mg/ml, Kollidon 5%
[21] = cetrorelix 2.5 mg/ml, Kollidon 10%
[22] = cetrorelix 2.5 mg/ml, Kollidon 15%
[23] = cetrorelix 2.5 mg/ml, Kollidon 20%
[24] = cetrorelix 5 mg/ml, Kollidon 15%
[25] = cetrorelix 5 mg/ml, Kollidon 20%
[26] = conc. of cetrorelix from lyo 2.5 mg/ml
[27] = conc. of cetrorelix from lyo 5 mg/ml
[28] = conc. of cetrorelix from lyo 15 mg/ml

Compound: CC(=O)N[C@H](Cc1ccc2ccccc2c1)C(=O)N[C@H](Cc1ccc(Cl)cc1)C(=O)N[C@H](Cc1cccnc1)C(=O)N[C@@H](CO)C(=O)N[C@@H](Cc1ccc(O)cc1)C(=O)N[C@H](CCCNC(N)=O)C(=O)N[C@@H](CC(C)C)C(=O)N[C@@H](CCCNC(=N)N)C(=O)N1CCC[C@H]1C(=O)N[C@H](C)C(N)=O [Base, cetrorelix] (Ac-[d2Nal][dPhe(4-Cl)][d3Pal]SY[dCit]LRP[dA]-NH2)
- Cetrorelix content in the plasma, % of the dose [1, 6]: 122.2 % of the dose
- Cetrorelix content in the muscle (168 h), % of the dose [2, 6]: 27.2 % of the dose

Compound: CC(=O)N[C@H](Cc1ccc2ccccc2c1)C(=O)N[C@H](Cc1ccc(Cl)cc1)C(=O)N[C@H](Cc1cccnc1)C(=O)N[C@@H](CO)C(=O)N[C@@H](Cc1ccc(O)cc1)C(=O)N[C@H](CCCNC(N)=O)C(=O)N[C@@H](CC(C)C)C(=O)N[C@@H](CCCNC(=N)N)C(=O)N1CCC[C@H]1C(=O)N[C@H](C)C(N)=O [cetrorelix acetate] (Ac-[d2Nal][dPhe(4-Cl)][d3Pal]SY[dCit]LRP[dA]-NH2)
- Appearance [3, 7]: clear
- Appearance [3, 8]: clear
- Appearance [3, 9]: clear
- Appearance [3, 10]: clear,; also recorded: viscose
- Appearance [3, 11]: clear
- Appearance [3, 12]: clear
- Appearance [3, 13]: clear
- Appearance [3, 14]: clear
- Appearance [3, 15]: clear
- Appearance [3, 16]: clear
- Cetrorelix content in the plasma, % of the dose [1, 17]: 92.2 % of the dose
- Cetrorelix content in the plasma, % of the dose [1, 18]: 28.7 % of the dose
- Cetrorelix content in the muscle (168 h), % of the dose [2, 17]: 55.1 % of the dose
- Cetrorelix content in the muscle (168 h), % of the dose [2, 18]: 56.5 % of the dose
- Rat % i.m. after 168 h ([2]; residual content in the muscle, % of dose, conc. of cetrorelix 2.5 mg/ml): ~55%
- Days without aggregation ([4]; 2.5 mg/ml cetrorelix acetate, gluconic acid in reconstitution medium 0%, pH 4.7): 1 days
- Days without aggregation ([4]; 2.5 mg/ml cetrorelix acetate, gluconic acid in reconstitution medium 0.0071%, pH 4.5): 2 days
- Days without aggregation ([4]; 2.5 mg/ml cetrorelix acetate, gluconic acid in reconstitution medium 0.071%, pH 3.7): 2 days
- Days without aggregation ([4]; 2.5 mg/ml cetrorelix acetate, gluconic acid in reconstitution medium 0.71%, pH 3.1): 12 days
- Aggregation (microscopy): yes, after ... days [4, 7]: 10 days
- Aggregation (microscopy): days without aggregation [4, 8]: ≧112 days
- Aggregation (microscopy): days without aggregation [4, 9]: ≧112 days
- Aggregation (microscopy): yes, after ... day [4, 10]: yes, after 1 day
- Aggregation (microscopy): days without aggregation [4, 11]: ≧12 days
- Aggregation (microscopy): days without aggregation [4, 12]: ≧12 days
- Aggregation (microscopy): yes, after ... days [4, 13]: yes, after 2 days
- Aggregation (microscopy): yes, after ... days [4, 14]: 14 days
- Aggregation (microscopy): days without aggregation [4, 15]: ≧112 days
- Aggregation (microscopy): days without aggregation [4, 16]: ≧112 days
- Days without aggregation ([4]; acetate salt, cetrorelix 2.5 mg/ml, glucuronic acid addition: no, pH 4.7): 0 days
- Days without aggregation ([4]; acetate salt, cetrorelix 2.5 mg/ml, glucuronic acid addition: yes, pH 3.0): >21 days
- Days without aggregation ([4]; acetate salt, cetrorelix 5 mg/ml, glucuronic acid addition: yes, pH 3.0): 0 days
- Days without aggregation with Kollidon ® 12 PF [4, 19]: 0 days
- Days without aggregation with Kollidon ® 17 PF [4, 19]: 0 days
- Days without aggregation with Kollidon ® 12 PF [4, 20]: 1 days
- Days without aggregation with Kollidon ® 17 PF [4, 20]: 2 days
- Days without aggregation with Kollidon ® 12 PF [4, 21]: 1 days
- Days without aggregation with Kollidon ® 17 PF [4, 21]: 2 days
- Days without aggregation with Kollidon ® 12 PF [4, 22]: 77 days
- Days without aggregation with Kollidon ® 17 PF [4, 22]: 63 days
- Days without aggregation with Kollidon ® 12 PF [4, 23]: 84 days
- Days without aggregation with Kollidon ® 17 PF [4, 23]: 98 days
- Days without aggregation with Kollidon ® 12 PF [4, 24]: 0 days
- Days without aggregation with Kollidon ® 17 PF [4, 24]: 1 days
- Days without aggregation with Kollidon ® 12 PF [4, 25]: 0 days
- Days without aggregation with Kollidon ® 17 PF [4, 25]: 1 days
- Aggregation-free duration ([4]; cetrorelix acetate 2.5 mg/ml, 10% of α-cyclodextrin): 7 days
- Aggregation-free duration ([4]; cetrorelix acetate 2.5 mg/ml, 20% of hydroxypropyl-β-cyclodextrin): 24 days
- Aggregation-free duration ([4]; cetrorelix acetate 5 mg/ml, 10% of α-cyclodextrin): 0 days
- Aggregation-free duration ([4]; cetrorelix acetate 5 mg/ml, 20% of hydroxypropyl-β-cyclodextrin): 7 days
- Aggregation-free duration ([4]; cetrorelix acetate 7.5 mg/ml, 10% of α-cyclodextrin): 0 days
- Aggregation-free duration ([4]; cetrorelix acetate 7.5 mg/ml, 20% of hydroxypropyl-β-cyclodextrin): 10 days
- Aggregation-free duration ([4]; cetrorelix acetate 10 mg/ml, 10% of α-cyclodextrin): 0 days
- Aggregation-free duration ([4]; cetrorelix acetate 10 mg/ml, 20% of hydroxypropyl-β-cyclodextrin): 2 days
- Aggregation-free duration ([4]; cetrorelix acetate 15 mg/ml, 20% of hydroxypropyl-β-cyclodextrin): 0 days
- Aggregation-free duration ([4]; cetrorelix acetate 15 mg/ml, 20% of γ-cyclodextrin): 0 days
- Pol. mic days without aggr. [4, 26]: 0 days
- Pol. mic days without aggr. [4, 27]: 0 days
- RRS, [%] after 1 h [5, 26]: 12% and 13%
- RRS, [%] after 6 h [5, 26]: 24.5% and 35.9%
- RRS, [%] after 1 h [5, 27]: 10%
- RRS, [%] after 6 h [5, 27]: 35%

Compound: Citrate
- RRS, [%] after 1 h [5, 28]: 9%
- RRS, [%] after 6 h [5, 28]: 20.3%

Compound: Lactate
- RRS, [%] after 1 h ([5]; bulk): 20%
- RRS, [%] after 6 h ([5]; bulk): 55.2%

Compound: Phosphate
- Cetrorelix content in the plasma, % of the dose ([1]; in vivo, 1.5 mg/kg): 22.6 % of the dose
- Cetrorelix content in the muscle (168 h), % of the dose ([2]; in vivo, 1.5 mg/kg): 32.9 % of the dose

Compound: cetrorelix gluconate
- Cetrorelix content in the plasma, % of the dose ([1]; in vivo, 1.5 mg/kg): 46.9 % of the dose
- Cetrorelix content in the muscle (168 h), % of the dose ([2]; in vivo, 1.5 mg/kg): 37.9 % of the dose
- Days without aggregation ([4]; 2.5 mg/ml cetrorelix gluconate, hydroxypropyl-β-cyclodextrin 20%): 189 days
- Days without aggregation ([4]; 2.5 mg/ml cetrorelix gluconate, hydroxypropyl-β-cyclodextrin […]): 91 days
- Days without aggregation ([4]; 2.5 mg/ml cetrorelix gluconate, α-cyclodextrin 5%): 1 days
- Days without aggregation ([4]; 2.5 mg/ml cetrorelix gluconate, α-cyclodextrin 10%): 140 days
- Days without aggregation ([4]; 2.5 mg/ml cetrorelix gluconate, γ-cyclodextrin 20%): 182 days
- Days without aggregation ([4]; 2.5 mg/ml cetrorelix gluconate, γ-cyclodextrin […]): 126 days
- Days without aggregation ([4]; cetrorelix 2.5 mg/ml, gluconic acid addition: yes, pH 3.0): >30 days
- Days without aggregation ([4]; cetrorelix 5 mg/ml, gluconic acid addition: no, pH 4.7): 1 days
- Days without aggregation ([4]; cetrorelix 5 mg/ml, gluconic acid addition: no, pH 4.8): 1 days
- Days without aggregation ([4]; cetrorelix 5 mg/ml, gluconic acid addition: yes, pH 3.6): 4 days
- Days without aggregation ([4]; cetrorelix 5 mg/ml, gluconic acid addition: yes, pH 3.8): 4 days
- Days without aggregation ([4]; cetrorelix 7.5 mg/ml, gluconic acid addition: no, pH 4.7): 0 days
- Days without aggregation ([4]; cetrorelix 7.5 mg/ml, gluconic acid addition: no, pH 4.8): 0 days
- Days without aggregation ([4]; cetrorelix 7.5 mg/ml, gluconic acid addition: yes, pH 3.4): 1 days
- Days without aggregation ([4]; cetrorelix 7.5 mg/ml, gluconic acid addition: yes, pH 3.7): 1 days
- RRS, [%] after 1 h [5, 26]: 18% and 11.3%
- RRS, [%] after 6 h [5, 26]: 45.3% and 46%

Compound: cetrorelix glucuronate
- Cetrorelix content in the plasma, % of the dose ([1]; in vivo, 1.5 mg/kg): 78.6 % of the dose
- Cetrorelix content in the muscle (168 h), % of the dose ([2]; in vivo, 1.5 mg/kg): 16.5 % of the dose
- Cetrorelix content in the muscle (168 h), % of the dose ([2]; in vivo, 3 mg/kg): 18.8 % of the dose
- Days without aggregation ([4]; glucuronate salt, cetrorelix 2.5 mg/ml, glucuronic acid addition: no, pH 4.5): 3 days
- Days without aggregation ([4]; glucuronate salt, cetrorelix 2.5 mg/ml, glucuronic acid addition: yes, pH 2.9): >30 days
- Days without aggregation ([4]; glucuronate salt, cetrorelix 5 mg/ml, glucuronic acid addition: no, pH 4.6): 0 days
- Days without aggregation ([4]; glucuronate salt, cetrorelix 5 mg/ml, glucuronic acid addition: yes, pH 2.7): >30 days

Reference: patent publication US7696149B2, “Pharmaceutical administration form for peptides, process for its preparation, and use” (AEterna Zentaris GmbH, priority 2000, dated 2010)
